Source: patent US20030225007A1, “Sulfonamide derivatives of 3-substituted imidazol[1,2-d]-1,2,4-thiadiazoles and 3-substituted-[1,2,4] thiadiazolo[4,5-a] benzimidazole as inhibitors of fibrin cross-linking and transglutaminases” (Apotex Inc., priority 2002, published 2003)

Test system: fibrin cross-linking in human plasma clots
Experiment: Inhibition of fibrin cross-linking in plasma clots (125I-fibrinogen, SDS-PAGE)
Type: biochemical
Settings: platelet-depleted and platelet-rich human plasma clots; inactivator at 40, 80 and 160 μM, added before thrombin and CaCl2
Method: Citrated human plasma (0.3 mL) containing 2-4 μg/mL of ^125I-labeled fibrinogen (specific activity approx. 200 μCi/mg, at least 85% clotability, Amersham Pharmacia Biotech UK Ltd.) was clotted by the addition of CaCl2 (6.4 μL) to a final concentration of 50 mM and thrombin (6.2 μL) to a final concentration of 5 units/mL. Solutions of Factor XIIIa inactivators in DMSO were added just prior to the addition of thrombin and CaCl2. In some cases the inactivator was dissolved and added to plasma in water. To these samples, DMSO (3.2 μL) was added, to make 1% final concentration. Conversely, water (3.2 μL) was added to clots to which inactivator was added in DMSO. In control samples both DMSO (3.2 μL) and water (3.2 μL) were added in place of the inactivator solution. Typically, only 20 μL of the mixture was withdrawn before clotting (the remainder of the solution was used for the fibrinolysis assay) and incubated at 37° C. for 30 min.
100 μL of 9 M urea containing 40 mM DTT was added and the solutions were incubated at 37° C. until the clots were completely dissolved. The samples were analyzed on SDS-PAGE gels using a standard procedure. The amount of radioactivity in each electrophoretic band was quantitated using a Storm 820 (Molecular Dynamics) autoradiography system after exposing the gel to a Kodak Storage Phosphor Screen. […]

For `O=C(O)CN(CCCCCCNS(=O)(=O)c1ccccc1[N+](=O)[O-])c1nsc2nccn12` [H / CH2CO2H / 2-NO2-Ph, N-imidazo[1,2-d][1,2,4]thiadiazol-3-yl-N-(6-{[(2-nitrophenyl)sulfonyl]amino}hexyl)glycine], the “formation of high molecular weight polymer in plasma clots” value was “inhibits the formation of high molecular weight polymer”.
